Non-standard residues stand in square brackets, D forms with d. Residues, ends and D or L forms follow the SMILES beside them.
System: isolated rat uterus
Assay: Bradykinin-inhibiting activity on isolated rat uterus (contraction at ED70 of bradykinin)
Type: cell-based
Conditions: for Inhibition of bradykinin effect, %: against ED70 of bradykinin, isolated rat uterus; for Duration of inhibition: time until bradykinin again gives the original contraction
Method: The bradykinin-inhibiting activity of the new tripeptide derivatives is evident from the following disclosure of the biological evaluation on isolated organs. The bradykinin-inhibiting activity is studied on isolated rat uterus. The rats are pretreated subcutanous with 0.2 mg/kg of diethyl stilbestrol, 12-15 hours prior to the experiment. The muscle from uterus which is longitudinally sectioned into halves is arranged in a smooth muscle bath with de Jalon's buffer (de Jalon et al., Farmacother.Acta, Vol. 3, p. 313, 1945), oxygenated with carbogene gas (5% carbon dioxide, 95% oxygen). The temperature is maintained at 35° C. The muscle is stretched with a tension corresponding to 0.5 g. The isometric tension is measured with Grass (FT 03C) force transmitter connected to a Grass polygraph.
Muscle contractions for bradykinin in bath concentrations of 10^-11 -10^-6 M (mole/liter) are registrated, and thereafter the concentration of bradykinin which induces 70% of maximum muscle contraction (ED70) is evaluated. The bradykinin inhibiting activity is then tested with the tripeptide derivatives in bath concentrations of 10^-8, 10^-7, 10^-6 and 10^-5 M, against the ED70 for bradykinin of resp. muscle. For each concentration the tripeptide derivatives are incubated with the uterus tissue 5 and 10 minutes resp. before the addition of bradykinin. The bradykinin-inhibiting activity is expressed as the time in minutes required until bradykinin again gives the original contraction. Each addition of bradykinin is followed by washing with the buffer.

[1] = conc. in test bath 10^-5 mole/liter
[2] = conc. in test bath 10^-6 mole/liter
[3] = conc. in test bath 10^-7 mole/liter
[4] = conc. in test bath 10^-8 mole/liter

CCCCCCCOC(=O)[C@H](CCCNC(=N)N)NC(=O)[C@H](Cc1ccccc1)NC(=O)[C@H]1CCCN1 [Example I, H-D-Pro-Phe-Arg-O-heptyl]
Inhibition of bradykinin effect, % [1]: 100% | Duration of inhibition [1]: 35 min | Inhibition of bradykinin effect, % [2]: 100% | Duration of inhibition [2]: 15 min | Inhibition of bradykinin effect, % [3]: 10% | Duration of inhibition [3]: 15 min | Inhibition of bradykinin effect, % [4]: 10% | Duration of inhibition [4]: 15 min

CCCCCCCNC(=O)[C@H](CCCNC(=N)N)NC(=O)[C@H](Cc1ccccc1)NC(=O)[C@H]1CCCN1 [Example II, H-D-Pro-Phe-Arg-NH-heptyl]
Inhibition of bradykinin effect, % [1]: 100% | Duration of inhibition [1]: 45 min | Inhibition of bradykinin effect, % [2]: 100% | Duration of inhibition [2]: 30 min | Inhibition of bradykinin effect, % [3]: 15% | Duration of inhibition [3]: 20 min | Inhibition of bradykinin effect, % [4]: 15% | Duration of inhibition [4]: 15 min

N=C(N)NCCC[C@H](NC(=O)[C@H](Cc1ccccc1)NC(=O)[C@H]1CCCN1)C(N)=O [Example III, H-D-Pro-Phe-Arg-NH2] (H-[dP]-Phe-Arg-NH2)
Inhibition of bradykinin effect, % [1]: 100% | Duration of inhibition [1]: 50 min | Inhibition of bradykinin effect, % [2]: 100% | Duration of inhibition [2]: 30 min | Inhibition of bradykinin effect, % [3]: 15% | Duration of inhibition [3]: 15 min | Inhibition of bradykinin effect, % [4]: 15% | Duration of inhibition [4]: 15 min

— patent US4242329A, “Bradykinin-inhibiting tripeptide derivatives” (AB Kabi, priority 1978, dated 1980)
